Calls of active or inactive are those of the source. The calls are words filed in the database; no cut-off is given here.
What was measured:
[1] = Antiproliferative activity against human LNCaP-hr cells expressing AR T877A mutant after 3 days by MTT assay; type: functional, cell-based; settings: 72 h
DU-145 = test: Antiproliferative activity against AR negative human DU145 cells after 3 days by MTT assay; type: functional, cell-based; settings: DU-145, 72 h
[2] = target: T1, Androgen receptor (Homo sapiens) (UniProt P10275); settings: at 10 µM
T1 sequence (whole entry): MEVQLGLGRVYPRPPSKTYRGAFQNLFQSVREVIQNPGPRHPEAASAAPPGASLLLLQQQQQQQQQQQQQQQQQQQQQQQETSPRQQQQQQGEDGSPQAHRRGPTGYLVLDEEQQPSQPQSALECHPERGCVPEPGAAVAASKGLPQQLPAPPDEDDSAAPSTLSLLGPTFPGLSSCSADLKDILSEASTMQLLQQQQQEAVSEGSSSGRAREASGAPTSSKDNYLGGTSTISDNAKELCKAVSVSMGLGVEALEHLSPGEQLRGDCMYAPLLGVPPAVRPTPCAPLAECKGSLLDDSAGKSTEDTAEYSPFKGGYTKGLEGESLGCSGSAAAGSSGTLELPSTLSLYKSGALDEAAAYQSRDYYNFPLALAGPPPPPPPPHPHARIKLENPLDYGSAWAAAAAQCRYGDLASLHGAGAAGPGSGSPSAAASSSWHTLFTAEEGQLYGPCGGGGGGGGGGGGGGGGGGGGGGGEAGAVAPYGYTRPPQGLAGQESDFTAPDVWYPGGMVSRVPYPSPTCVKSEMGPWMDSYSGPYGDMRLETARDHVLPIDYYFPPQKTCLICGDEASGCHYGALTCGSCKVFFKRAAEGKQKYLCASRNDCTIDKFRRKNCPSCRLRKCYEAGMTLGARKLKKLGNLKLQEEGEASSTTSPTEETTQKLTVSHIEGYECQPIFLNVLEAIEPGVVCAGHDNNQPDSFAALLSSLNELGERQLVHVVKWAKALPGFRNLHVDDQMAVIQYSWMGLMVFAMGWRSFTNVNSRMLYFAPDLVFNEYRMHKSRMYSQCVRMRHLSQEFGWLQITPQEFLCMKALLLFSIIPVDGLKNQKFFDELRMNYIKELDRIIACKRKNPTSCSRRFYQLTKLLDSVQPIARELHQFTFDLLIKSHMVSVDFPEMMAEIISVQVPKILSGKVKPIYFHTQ
Description: Antagonist activity at androgen receptor (unknown origin) expressed in COS-7 cells assessed as inhibition of R1881-induced MMTV promoter activity at 10 uM by luciferase reporter gene assay relative to control

[3] = Displacement of Fluormone-AL green from rat GST/His-tagged AR LBD mutant after 4 hrs by Fluorescence polarization assay
[4] = test system: Androgen receptor (Homo sapiens), P10275 [T878A]; settings: at 10 µM
Sequence of Androgen receptor (Homo sapiens), P10275 [T878A] (P10275 whole entry T878A): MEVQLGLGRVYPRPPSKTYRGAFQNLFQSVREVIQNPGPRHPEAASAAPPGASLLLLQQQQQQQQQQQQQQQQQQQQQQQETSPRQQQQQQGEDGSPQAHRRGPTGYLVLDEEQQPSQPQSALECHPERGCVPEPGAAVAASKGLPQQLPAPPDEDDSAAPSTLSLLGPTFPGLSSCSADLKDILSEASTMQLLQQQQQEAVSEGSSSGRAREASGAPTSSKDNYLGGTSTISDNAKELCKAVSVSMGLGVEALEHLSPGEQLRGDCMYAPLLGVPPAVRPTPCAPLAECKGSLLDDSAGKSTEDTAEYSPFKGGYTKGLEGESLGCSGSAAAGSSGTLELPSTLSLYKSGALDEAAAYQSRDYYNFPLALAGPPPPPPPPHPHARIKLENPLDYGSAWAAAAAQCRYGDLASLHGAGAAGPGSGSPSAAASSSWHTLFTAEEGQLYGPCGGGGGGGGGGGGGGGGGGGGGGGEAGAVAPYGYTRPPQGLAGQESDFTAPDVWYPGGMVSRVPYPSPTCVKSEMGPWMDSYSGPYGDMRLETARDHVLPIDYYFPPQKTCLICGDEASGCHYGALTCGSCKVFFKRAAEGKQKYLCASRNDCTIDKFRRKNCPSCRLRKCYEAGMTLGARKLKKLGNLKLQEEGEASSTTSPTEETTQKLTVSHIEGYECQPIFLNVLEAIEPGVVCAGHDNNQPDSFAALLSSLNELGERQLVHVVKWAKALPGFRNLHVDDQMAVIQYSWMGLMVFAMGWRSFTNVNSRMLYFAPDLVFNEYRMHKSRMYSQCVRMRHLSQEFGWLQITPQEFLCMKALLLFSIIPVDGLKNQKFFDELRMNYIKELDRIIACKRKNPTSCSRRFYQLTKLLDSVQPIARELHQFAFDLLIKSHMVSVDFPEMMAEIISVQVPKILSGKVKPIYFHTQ
Description: Inhibition of R1881-induced AR T877A mutant nuclear translocation in human LNCAP cells assessed as reduction in ratio of nuclear to cytoplasmic AR levels at 10 uM after 12 hrs by DAPI-staining based fluorescent microscopy

| SMILES | IC50 [1] [µM] | IC50 (DU-145) [µM] | inhibition [2] | IC50 [3] [µM] | inhibition [4] |
| --- | --- | --- | --- | --- | --- |
| N#Cc1ccc(N2C(=O)C3Cc4ccc(I)cc4N3C2=S)cc1C(F)(F)F (configuration not stated) | 71.9 | 190 | 58.4% |  |  |
| N#Cc1ccc(N2C(=O)C3Cc4cc([N+](=O)[O-])ccc4N3C2=S)cc1C(F)(F)F (configuration not stated) | 64.7 | 78.4 | 21.8% |  |  |
| N#Cc1ccc(N2C(=O)C3Cc4cc(Cl)ccc4N3C2=S)cc1C(F)(F)F (configuration not stated) | 46 | 160 | 6.7% |  |  |
| CC(C)CNC(=O)c1cc2c(cc1F)N1C(=S)N(c3ccc(C#N)c(C(F)(F)F)c3)C(=O)C1C2 (configuration not stated) | 70.7 | > 200 | inactive |  |  |
| CNC(=O)c1ccc2c(c1)N1C(=S)N(c3ccc(C#N)c(C(F)(F)F)c3)C(=O)C1C2 (configuration not stated) | 144 | > 200 | 13.1% |  |  |
| N#Cc1ccc(N2C(=O)C3Cc4ccccc4N3C2=S)cc1C(F)(F)F (configuration not stated) | 15.3 | 143 |  |  |  |
| N#Cc1ccc(N2C(=O)C3Cc4ccc(N)cc4N3C2=S)cc1C(F)(F)F (configuration not stated) | 32.6 | 67 | 29% |  |  |
| CCCCNC(=O)c1cc2c(cc1F)N1C(=S)N(c3ccc(C#N)c(C(F)(F)F)c3)C(=O)C1C2 (configuration not stated) | 67.3 | 175 | inactive |  |  |
| N#Cc1ccc(N2C(=O)c3cc4ccccc4n3C2=S)cc1C(F)(F)F | 33.4 | 146 | 21.1% |  |  |
| N#Cc1ccc(N2C(=O)C3Cc4cc(C(=O)NC5CCCCC5)c(F)cc4N3C2=S)cc1C(F)(F)F (configuration not stated) | 44.9 | 126 | 55.1% |  |  |
| CC(O)CNC(=O)c1ccc2c(c1)N1C(=S)N(c3ccc(C#N)c(C(F)(F)F)c3)C(=O)C1C2 (configuration not stated) | 48.4 | > 200 | 39.3% |  |  |
| CCCCNC(=O)c1ccc2c(c1)N1C(=S)N(c3ccc(C#N)c(C(F)(F)F)c3)C(=O)C1C2 (configuration not stated) | 77.2 | 58 | inactive |  |  |
| N#Cc1ccc(N2C(=O)C3Cc4ccc(Br)cc4N3C2=S)cc1C(F)(F)F (configuration not stated) | 30.4 | > 200 | 68.3% | 2.98 |  |
| CCCNC(=O)c1ccc2c(c1)N1C(=S)N(c3ccc(C#N)c(C(F)(F)F)c3)C(=O)C1C2 (configuration not stated) | 90.8 | 114 | inactive |  |  |
| N#Cc1ccc(N2C(=O)C3CCCN3C2=S)cc1C(F)(F)F (configuration not stated) | 87.7 | > 200 | 32% |  |  |
| CNC(=O)c1cc2c(cc1F)N1C(=S)N(c3ccc(C#N)c(C(F)(F)F)c3)C(=O)C1C2 (configuration not stated) | 58.2 | > 200 | inactive |  |  |
| CCNC(=O)c1ccc2c(c1)N1C(=S)N(c3ccc(C#N)c(C(F)(F)F)c3)C(=O)C1C2 (configuration not stated) | 35.3 | 105 | 2.1% |  |  |
| N#Cc1ccc(N2C(=O)C3CC4CCCCC4N3C2=S)cc1C(F)(F)F (configuration not stated) | 36.2 | 128 | 50.5% |  |  |
| N#Cc1ccc(N2C(=O)C3Cc4ccc(C(=O)NC5CCCCC5)cc4N3C2=S)cc1C(F)(F)F (configuration not stated) | 29.3 | 101 | 22.9% |  |  |
| N#Cc1ccc(N2C(=O)C3Cc4ccc(C(=O)NCCO)cc4N3C2=S)cc1C(F)(F)F (configuration not stated) | 25.8 | 175 | 37% |  |  |
| CCNC(=O)c1cc2c(cc1F)N1C(=S)N(c3ccc(C#N)c(C(F)(F)F)c3)C(=O)C1C2 (configuration not stated) | 54.1 | 115 | inactive |  |  |
| CCCNC(=O)c1cc2c(cc1F)N1C(=S)N(c3ccc(C#N)c(C(F)(F)F)c3)C(=O)C1C2 (configuration not stated) | 11.2 | > 200 | inactive |  |  |
| C[C@]1(O)CC[C@H]2[C@@H]3CCC4=CC(=O)CCC4=C3C=C[C@@]21C |  |  | inactive |  |  |
| N#Cc1ccc(N2C(=O)C3Cc4ccc([N+](=O)[O-])cc4N3C2=S)cc1C(F)(F)F (configuration not stated) | 26.9 | > 200 | 58.2% | 4.49 |  |
| N#Cc1ccc(N2C(=O)C3Cc4cc(N)ccc4N3C2=S)cc1C(F)(F)F (configuration not stated) | 99.1 | > 200 | 23.4% |  |  |
| N#Cc1ccc(N2C(=O)C3Cc4cc(Br)ccc4N3C2=S)cc1C(F)(F)F (configuration not stated) | 83.7 | > 200 | 57.1% |  |  |
| CNC(=O)c1ccc(N2C(=S)N(c3ccc(C#N)c(C(F)(F)F)c3)C(=O)C2(C)C)cc1F [ENZALUTAMIDE] | 12.5 |  |  | 1.35 |  |
| N#Cc1ccc(N2C(=O)C3CC(O)CN3C2=S)cc1C(F)(F)F (configuration not stated) | 52.6 | > 200 | 1.9% |  |  |
| N#Cc1ccc(N2C(=O)C3Cc4ccc(Cl)cc4N3C2=S)cc1C(F)(F)F (configuration not stated) | 27.9 | > 200 | 71.9% | 2.33 | Active |
